Source: patent US20050203065A1, “Method of treating ischemia reperfusion injury using adenosine receptor antagonists” (priority 2002, published 2005)
Read-outs that look alike come from different tables or passages of the source. Blank lines part the entries; values can stand above or below the compound they belong to.

Tests used:
[1] = biological target: T1, recombinant canine A3 adenosine receptors (Canis lupus familiaris, UniProt Q28309); experiment: Radioligand competition binding, canine A3 receptor (R-PIA), transfected HEK 293 membranes; conditions: mean ± SEM, n = 3
T1 construct: expressed in transfected cells
T1 sequence (Q28309 1-314): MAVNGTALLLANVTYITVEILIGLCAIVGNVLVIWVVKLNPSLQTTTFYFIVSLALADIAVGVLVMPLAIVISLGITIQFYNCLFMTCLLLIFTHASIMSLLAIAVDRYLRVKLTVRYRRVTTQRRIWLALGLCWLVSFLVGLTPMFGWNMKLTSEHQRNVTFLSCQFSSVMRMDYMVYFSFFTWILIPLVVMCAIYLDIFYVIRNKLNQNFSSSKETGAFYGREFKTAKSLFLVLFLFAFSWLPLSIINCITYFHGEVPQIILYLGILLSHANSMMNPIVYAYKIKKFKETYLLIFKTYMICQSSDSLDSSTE
Experimental: (§1) Membranes (40-70 μg membrane protein), radioligands, and varying concentrations of competing ligands were incubated in triplicate in 0.1 ml buffer HE plus 2 units/mL adenosine deaminase for 2.5 hours at 21° C. The radioligands used for competitive binding assays were: [^3H]-8-cyclopentyl-1,3-dipropyxanthine ([^3H]-DPCPX) (NEN, Boston, Mass.) for A1 and A2b adenosine receptors, [^3H]-4-(2-[7-amino-2-(furyl)(1,2,4)triazole(2,3-a)(1,3,5)triazin-5-ylaminoethyly)phenol ([^3H] ZM241385) for A2a adenosine receptors (Tocris, Bristol, UK), and [^125Iodine]-labeled N6-(4-aminobenzyl)-9-(5-(methylcarbonyl)-β-D-ribofuranosyl) adenine ([^125I]-AB-MECA) or [^3H]-R-N^6-phenylisopropyladenosine (H^3R]-R-PIA) for A3 adenosine receptors (both from NEN, Boston, Mass.). Nonspecific binding was measured in the presence of 10 μM 5′N ethylcarboxamidoadenosine (NECA, from RBI-Sigma, Natick, Mass.) for A1 and A2b receptors, or 10 μM xanthine amino congener (XAC, from RBI-Sigma, Natick, Mass.) for A2a receptors. Binding assays were terminated by filtration over Whatman GF/C glass fiber filters using a BRANDEL cell harvester (Gaithersburg, Md.). The-filters were rinsed three times with 3-4 mL ice-cold 10 mM Tris-HCl, pH 7.4 and 5 mM magnesium chloride (MgCl2) at 4° C., and were counted in a Wallac β-counter (Perkin Elmer, Boston, Mass.).

[2] = biological target: T2, recombinant canine A1 adenosine receptors (Canis lupus familiaris, UniProt P11616); experiment: Radioligand competition binding, canine A1 receptor (3H-CPX), transfected HEK 293 membranes
T2 construct: expressed in transfected cells
T2 sequence (P11616 1-326): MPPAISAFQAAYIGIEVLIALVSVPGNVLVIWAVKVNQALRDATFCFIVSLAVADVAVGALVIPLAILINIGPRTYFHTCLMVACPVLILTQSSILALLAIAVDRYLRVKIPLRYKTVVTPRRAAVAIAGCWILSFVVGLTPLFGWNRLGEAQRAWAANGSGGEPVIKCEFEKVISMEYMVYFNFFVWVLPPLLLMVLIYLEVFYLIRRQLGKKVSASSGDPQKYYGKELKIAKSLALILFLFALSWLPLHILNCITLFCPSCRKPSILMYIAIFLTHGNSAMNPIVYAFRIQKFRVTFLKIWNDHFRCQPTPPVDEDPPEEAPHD
Experimental: as §1, with “Md.).” for “Md.). The-filters were rinsed three times with 3-4 mL ice-cold 10 mM Tris-HCl, pH 7.4 and 5 mM magnesium chloride (MgCl2) at 4° C., and were counted in a Wallac β-counter (Perkin Elmer, Boston, Mass.).”

[3] = system: open-chest, barbital-anesthetized dogs; experiment: Protocol I (pretreatment): 60 minutes of coronary artery occlusion and 3 hours of reperfusion in dogs
Experimental: (§2) The studies were performed in open-chest, barbital-anesthetized dogs instrumented to measure heart rate, blood pressure, left ventricular pressure, and regional myocardial blood flow (radioactive microspheres). A mechanical occluder was placed around a proximal portion of the left anterior descending coronary artery to produce ischemia and reperfusion. At the end of the experiments, infarct size was determined-by histochemical staining (patent blue dye and triphenyltetrazolium) and expressed as a percentage of the region at risk or as a percentage of the entire left ventricle.
In the pretreatment protocol (see FIG. 1, protocol I), the dogs were subjected to 60 minutes of coronary artery occlusion and 3 hours or reperfusion after which the hearts were removed and infarct size was assessed. […] All of the antagonists were administered at a dose of 1 mg/kg as an i.v. bolus followed by and infusion of 10 μg/kg/min continued until immediately before reperfusion (70 minutes total).

[4] = system: open-chest, barbital-anesthetized dogs; experiment: Protocol II (preconditioning): four 5-minute occlusion/reperfusion cycles before 60-minute occlusion and 3 hours reperfusion in dogs; assay type: in vivo, dog; conditions: for Effect on the protective effects of ischemic preconditioning: 1 mg/kg i.v. bolus + 10 μg/kg/min
Experimental: Preconditioning was elicited by four 5-minute occlusion/5-minute reperfusion cycles produced 10 minutes before the 60-minute occlusion.

[5] = biological target: T3, recombinant human A3 adenosine receptors (Homo sapiens, UniProt P0DMS8); experiment: Radioligand binding, human A3 receptor ([125I]-AB-MECA), incl. one-point binding at 10 μM; conditions: read-out: Percent (%) Inhibition at 10 μM Antagonist, A3
T3 construct: expressed in transfected cells; host or cells: HEK 293
T3 sequence (P0DMS8 1-318): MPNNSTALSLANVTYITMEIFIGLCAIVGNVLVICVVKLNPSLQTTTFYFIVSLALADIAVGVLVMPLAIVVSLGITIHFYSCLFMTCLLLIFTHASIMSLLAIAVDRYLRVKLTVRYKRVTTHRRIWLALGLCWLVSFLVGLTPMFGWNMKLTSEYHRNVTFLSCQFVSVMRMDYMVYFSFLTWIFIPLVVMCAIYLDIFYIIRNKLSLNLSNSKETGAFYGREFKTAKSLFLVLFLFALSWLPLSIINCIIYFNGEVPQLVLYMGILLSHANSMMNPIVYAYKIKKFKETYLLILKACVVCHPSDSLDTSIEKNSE

[6] = system: open-chest, barbital-anesthetized dogs; experiment: Protocol III (reperfusion): 60 minutes occlusion and 3 hours reperfusion, drug from 10 minutes before release of occlusion, dogs; assay type: in vivo, dog; conditions: for Infarct size expressed as a percentage of the risk region, in words: administration during the early phase of reperfusion
Experimental: as §2
In the reperfusion protocol (see FIG. 3, protocol III), the dogs were subjected to 60 minutes of coronary artery occlusion followed by three hours of reperfusion. […] The antagonists were administered at a dose of 1 mg/kg i.v. bolus followed by an infusion of 10 μg/kg/min for one hour.

[7] = biological target: T4, recombinant canine A2a adenosine receptors (Canis lupus familiaris, UniProt P11617); experiment: Radioligand competition binding, canine A2a receptor (3H-ZM 241385), transfected HEK 293 membranes
T4 construct: expressed in transfected cells
T4 sequence (P11617 whole entry): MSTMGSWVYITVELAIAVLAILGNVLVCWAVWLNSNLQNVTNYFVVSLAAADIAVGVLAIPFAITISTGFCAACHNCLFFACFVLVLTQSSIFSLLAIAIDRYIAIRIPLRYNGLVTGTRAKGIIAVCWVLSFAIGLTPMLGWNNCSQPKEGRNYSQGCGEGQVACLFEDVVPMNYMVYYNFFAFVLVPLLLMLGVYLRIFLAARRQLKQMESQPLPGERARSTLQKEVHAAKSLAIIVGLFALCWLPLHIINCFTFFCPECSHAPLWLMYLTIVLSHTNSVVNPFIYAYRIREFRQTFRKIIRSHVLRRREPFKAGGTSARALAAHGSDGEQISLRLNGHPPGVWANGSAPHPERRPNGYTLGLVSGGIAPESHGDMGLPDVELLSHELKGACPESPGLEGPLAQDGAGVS
Experimental: Membranes (40-70 μg membrane protein), radioligands, and varying concentrations of competing ligands were incubated in triplicate in 0.1 ml buffer HE plus 2 units/mL adenosine deaminase for 2.5 hours at 21° C. […] Nonspecific binding was measured in the presence of 10 μM 5′N ethylcarboxamidoadenosine (NECA, from RBI-Sigma, Natick, Mass.) for A1 and A2b receptors, or 10 μM xanthine amino congener (XAC, from RBI-Sigma, Natick, Mass.) for A2a receptors. Binding assays were terminated by filtration over Whatman GF/C glass fiber filters using a BRANDEL cell harvester (Gaithersburg, Md.).

[8] = biological target: T5, human A2B adenosine receptors (Homo sapiens, UniProt P29275); experiment: Radioligand competitive binding, ADENOSINE A2B (HEK293), [3H]-DPCPX (Table 8); parameters: purchased Receptor Biology; host or cells: HEK 293; conditions: [3H]-DPCPX 30-40 nM
T5 sequence (P29275 1-332): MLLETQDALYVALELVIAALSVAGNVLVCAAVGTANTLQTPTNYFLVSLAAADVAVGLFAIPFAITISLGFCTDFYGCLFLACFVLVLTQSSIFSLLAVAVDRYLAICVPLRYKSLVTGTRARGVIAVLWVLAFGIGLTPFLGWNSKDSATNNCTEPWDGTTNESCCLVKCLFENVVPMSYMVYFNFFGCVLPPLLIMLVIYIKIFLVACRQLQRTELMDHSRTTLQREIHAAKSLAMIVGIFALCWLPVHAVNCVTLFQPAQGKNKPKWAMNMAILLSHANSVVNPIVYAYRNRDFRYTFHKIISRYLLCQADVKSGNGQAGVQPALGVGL
Experimental: Membranes (50 μg membrane protein), radioligands, and varying concentrations of competing ligands were incubated in triplicate in 0.1 mL buffer HE plus 2 units/mL adehosine, deaminase for 2 hours at 21° C. The radioligand used for competitive binding assays for human A2B adenosine receptors was [^3H]-8-cyclopentyl-1,3-dipropyxanthine ([^3H]-DPCPX, 30-40 nM) (NEN, Boston, Mass.). Nonspecific binding was measured in the presence of 10 μM 5′N-ethylcarboxamidoadenosine (NECA; from RBI-Sigma, Natick, Mass.). Binding assays were terminated by filtration over Whatman GF/C glass fiber filters using a BRANDEL cell harvester (Gaithersburg, Md.). The filters were rinsed three times with 3 to 4 mL ice-cold 10 mM Tris-HCl, pH 7.4 and 5 mM magnesium chloride (MgCl2) at 4° C. and were counted in a Wallac β-counter (Perkin Elmer, Boston, Mass.).
Competitive binding data were fit to a single site binding model and plotted using Prizm GraphPad. The Cheng-Prusoff equation KI=IC50/(1+[I]/KD) was used to calculate KI values from IC50 values, where KI is the affinity constant for the competing ligand, [I] is the concentration of the free radioligand, and KD is the affinity constant for the radioligand (Cheng and Prusoff 1973).

- Ki [1]: 19.1 µM
- Ki ([2]; canine, mean ± SEM, n = 3, 3H-CPX, read-out: Ki, A1): 35.8 ± 4 nM
- inhibition at 10 µM [5]: 40.6%
- Ki ([7]; canine, mean ± SEM, n = 3, 3H-ZM 241385, read-out: Ki, A2a): 2820 nM
SMILES: CCCn1c(=O)c2[nH]c([C@H]3C[C@@H]4C[C@H]3[C@H]3O[C@@H]43)nc2n(CCC)c1=O [BG 9719, 8-(2S-5,6-exo-epoxy-endo-norborn-2-yl)-1,3-dipropyl-3,7-dihydro-purine-2,6-dione]
- Relationship between infarct size and transmural collateral blood flow compared to control group [3]: similar
- Effect on the protective effects of ischemic preconditioning ([4]; Protocol II): did not block
- Infarct size expressed as a percentage of the risk region, in words [6]: no protective effect

SMILES: CCCn1c(=O)c2[nH]c(C3CCCC3)nc2n(CCC)c1=O [CPX, 8-Cyclopentyl-1,3-dipropyl-3,7-dihydro-purine-2,6-dione]
- Ki [1]: 1.96 µM
- Ki [2]: 18.1 ± 4.4 nM
- Relationship between infarct size and transmural collateral blood flow compared to control group [3]: shifted downward
- Infarct size (percentage of risk region or of left ventricle) compared with control, in words ([3]; 1 mg/kg i.v. bolus + 10 μg/kg/min from 10 minutes before occlusion): significantly smaller
- Infarct size reduction ([3]; 1 mg/kg i.v. bolus + 10 μg/kg/min from 10 minutes before occlusion, vs control): 51%
- Addition to the protective effect of ischemic preconditioning ([4]; Protocol II): added to the protective effect
- Relationship between infarct size and collateral blood flow compared to preconditioned control ([4]; Protocol II (preconditioning)): shifted downward further
- Effect on the protective effects of ischemic preconditioning ([4]; Protocol II): did not block
- Infarct size expressed as a percentage of the entire left ventricle, in words [6]: a significant reduction in infarct size was not observed
- Relationship between infarct size and collateral blood flow compared to control group [6]: shifted downward
- Reduction in infarct size (percentage of the risk region) ([6]; 1 mg/kg i.v. bolus + 10 μg/kg/min for one hour from 10 minutes before release of occlusion): 42%
- Infarct size expressed as a percentage of the risk region, in words [6]: reduced significantly
- Ki [7]: 162 ± 22 nM

- Ki [8]: 14.6 nM
SMILES: CCCn1c(=O)c2[nH]c(C3C4CC5C(C4CCCN(C)C)C53)nc2n(CCC)c1=O (centres unmarked) [Compound 1]

- Ki [8]: 15.2 nM
SMILES: CCCn1c(=O)c2[nH]c(C34CCC(OCC(=O)O)(CC3)C4)nc2n(CCC)c1=O [Compound 2]

- Ki [8]: 27 nM
SMILES: CCCn1c(=O)c2[nH]c(-c3ccc(C#N)cc3)c(O)c2n(CCC)c1=O [Compound 3]

- Ki [8]: 39 nM
SMILES: CCCn1c(=O)c2[nH]c(C34CCC(CN(C)C)(CC3)CC4)nc2n(CCN)c1=O [Compound 4]

- Ki [8]: 45.1 nM
SMILES: CCCn1c(=O)c2[nH]c(C34CCC(O[C@@H](C)C(=O)O)(CC3)CC4)nc2n(CCC)c1=O [Compound 5]

- Ki [8]: 47 nM
SMILES: CCCn1c(=O)c2[nH]c(C34CCCC(O)(CC3)CC4)nc2n(CCC)c1=O [Compound 6]

SMILES: CCCn1c(=O)c2[nH]c(C34CCC(CCC(=O)O)(CC3)CC4)nc2n(CCC)c1=O [Compound 7]
- Ki [8]: 51.4 nM

- Ki [8]: 55.2 nM
SMILES: CCCn1c(=O)c2[nH]c(C34CCC(CN)(CC3)CC4)nc2n(CCC)c1=O [Compound 8]

- Ki [8]: 76.9 nM
SMILES: CCCn1c(=O)c2[nH]c(C34CCC(O)C(CC3)C4)nc2n(CCC)c1=O (centres unmarked) [Compound 9]

- Ki [8]: 85.6 nM
SMILES: CCCn1c(=O)c2nc(C34CCC(CCC(=O)Nc5nnn[nH]5)(CC3)CC4)[nH]c2n(CCC)c1=O [Compound 10]

- Ki [8]: 93 nM
SMILES: CCCn1c(=O)c2[nH]c(C3CC4CCC(C3)C4NCC(=O)OCC)nc2n(CCC)c1=O (centres unmarked) [Compound 11]

- Ki [8]: 100 nM
SMILES: CCCn1c(=O)c2[nH]c(C34CCC(/C=C/C(=O)O)(CC3)CC4)nc2n(CCC)c1=O [Compound 12]

- Ki [8]: 117 nM
SMILES: CCCn1c(=O)c2[nH]c(C34CCC(/C=C/C(=O)O)(CC3)OC4)nc2n(CCC)c1=O [Compound 13]

- Ki [8]: 125 nM
SMILES: CCCn1c(=O)c2[nH]c(C34CCC(OCCC(=O)O)(CC3)C4)nc2n(CCC)c1=O [Compound 14]

- Ki [8]: 127 nM
SMILES: CCCn1c(=O)c2nc(C34CCC(CCCC(=O)O)(CC3)CC4)[nH]c2n(CCC)c1=O [Compound 15]

- Ki [8]: 131 nM
SMILES: CCCn1c(=O)c2nc(C34CCC(C5=NOC(C(=O)O)C5)(CC3)CC4)[nH]c2n(CCC)c1=O (centres unmarked) [Compound 16]

- Ki [8]: 160 nM
SMILES: CCCn1c(=O)c2[nH]c(C34CCC(CCc5nnn[nH]5)(CC3)CC4)nc2n(CCC)c1=O [Compound 17]

- Ki [8]: 168 nM
SMILES: CCCn1c(=O)c2[nH]c(C34CCCC(OCC(=O)O)(CC3)CC4)nc2n(CCC)c1=O [Compound 18]
